ChEMBL document CHEMBL1201862, “PubChem BioAssay data set” (2004)
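96-well plates; 48 h exposure; 5 concentrations. Endpoints by linear interpolation between flanking doses. Not reached: highest tested concentration assigned. Abbreviation: GI50, concentration required for 50% inhibition of growth.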 The source made the active and inactive calls. Rule as the data show it: active = GI50 up to about 1.1 µM and inactive = higher.

Assays:
Assay in all cases: DTP human tumour cell line panel, 48 h
[1] = system: 786-0
[2] = system: A498
[3] = system: A549
[4] = system: ACHN
[5] = system: CAKI-1
[6] = system: CCRF-CEM
[7] = system: COLO 205
[8] = system: DLD-1
[9] = system: DMS-114
[10] = system: DMS-273
[11] = system: HCC 2998
[12] = system: HCT-116
[13] = system: HCT-15
[14] = system: HL-60
[15] = system: HOP-18
[16] = system: HOP-62
[17] = system: HOP-92
[18] = system: HT-29
[19] = system: IGROV-1
[20] = system: K562
[21] = system: KM-20L2
[22] = system: KM12
[23] = system: LOX IMVI
[24] = system: LXFL 529
[25] = system: M14
[26] = system: M19-MEL
[27] = system: MOLT-4
[28] = system: Malme-3M
[29] = system: NCI-H226
[30] = system: NCI-H23
[31] = system: NCI-H460
[32] = system: NCI-H522
[33] = system: OVCAR-3
[34] = system: OVCAR-4
[35] = system: OVCAR-5
[36] = system: OVCAR-8
[37] = system: RPMI-8226
[38] = system: RXF 393
[39] = system: RXF 631
[40] = system: SF-268
[41] = system: SF-295
[42] = system: SF-539
[43] = system: SK-MEL-28
[44] = system: SK-MEL-5
[45] = system: SK-OV-3
[46] = system: SN12C
[47] = system: SNB-19
[48] = system: SNB-75
[49] = system: SNB-78
[50] = system: SR
[51] = system: SW-620
[52] = system: TK-10
[53] = system: U-251
[54] = system: UACC-257
[55] = system: UACC-62
[56] = system: UO-31
[57] = system: EKVX
[58] = system: SK-MEL-2
[59] = system: XF498

Structure (SMILES): COC1(OC)CC2C(=O)N(Cc3ccccc3)C1C(S(=O)(=O)c1ccccc1)C2S(=O)(=O)c1ccccc1 (centres undefined)
- GI50 [1]: 16.9 µM (inactive)
- GI50 [2]: 18.2 µM (inactive)
- GI50 [3]: 29.6 µM (inactive)
- GI50 [4]: 10.6 µM (inactive)
- GI50 [5]: 13.8 µM (inactive)
- GI50 [6]: 2.91 µM (inactive)
- GI50 [7]: 4.53 µM (inactive)
- GI50 [8]: 3.52 µM (inactive)
- GI50 [9]: 3.7 µM (inactive)
- GI50 [10]: 14.6 µM (inactive)
- GI50 [11]: 17.1 µM (inactive)
- GI50 [12]: 16.4 µM (inactive)
- GI50 [13]: 3.62 µM
- GI50 [14]: 3.87 µM (inactive)
- GI50 [15]: 17.2 µM (inactive)
- GI50 [16]: > 100 µM (inactive)
- GI50 [17]: 19.3 µM (inactive)
- GI50 [18]: 11.6 µM (inactive)
- GI50 [19]: 17.2 µM (inactive)
- GI50 [20]: 7.48 µM (inactive)
- GI50 [21]: 17.4 µM (inactive)
- GI50 [22]: 16.4 µM (inactive)
- GI50 [23]: 10.2 µM (inactive)
- GI50 [24]: 3.48 µM (inactive)
- GI50 [25]: 14.8 µM (inactive)
- GI50 [26]: 11.1 µM (inactive)
- GI50 [27]: 11.5 µM (inactive)
- GI50 [28]: 15.6 µM (inactive)
- GI50 [29]: 19.7 µM (inactive)
- GI50 [30]: 13.6 µM (inactive)
- GI50 [31]: 27.7 µM (inactive)
- GI50 [32]: 2.02 µM (inactive)
- GI50 [33]: 10.9 µM (inactive)
- GI50 [34]: 15.1 µM (inactive)
- GI50 [35]: 19.9 µM (inactive)
- GI50 [36]: 8.07 µM (inactive)
- GI50 [37]: 15.9 µM (inactive)
- GI50 [38]: 12.6 µM (inactive)
- GI50 [39]: 16.7 µM (inactive)
- GI50 [40]: 14.1 µM (inactive)
- GI50 [41]: 45.7 µM (inactive)
- GI50 [42]: 14 µM (inactive)
- GI50 [43]: 13.7 µM (inactive)
- GI50 [44]: 18.4 µM (inactive)
- GI50 [45]: 30 µM (inactive)
- GI50 [46]: 12.7 µM (inactive)
- GI50 [47]: > 100 µM (inactive)
- GI50 [48]: 14.2 µM (inactive)
- GI50 [49]: 18.5 µM (inactive)
- GI50 [50]: 5.31 µM (inactive)
- GI50 [51]: 2.13 µM (inactive)
- GI50 [52]: 15.2 µM (inactive)
- GI50 [53]: 13.6 µM (inactive)
- GI50 [54]: 7.38 µM (inactive)
- GI50 [55]: 13.4 µM (inactive)
- GI50 [56]: 17.4 µM (inactive)

Structure (SMILES): NC1=C(O)c2cccc3cccc(c23)C1=O
- GI50 [1]: > 100 µM (inactive)
- GI50 [2]: > 100 µM (inactive)
- GI50 [3]: > 100 µM (inactive)
- GI50 [4]: > 100 µM (inactive)
- GI50 [5]: > 100 µM (inactive)
- GI50 [6]: > 100 µM (inactive)
- GI50 [7]: > 100 µM (inactive)
- GI50 [8]: > 100 µM (inactive)
- GI50 [9]: > 100 µM (inactive)
- GI50 [10]: > 100 µM (inactive)
- GI50 [57]: > 100 µM (inactive)
- GI50 [11]: > 100 µM (inactive)
- GI50 [12]: > 100 µM (inactive)
- GI50 [13]: > 100 µM
- GI50 [14]: > 100 µM (inactive)
- GI50 [15]: > 100 µM (inactive)
- GI50 [17]: > 100 µM (inactive)
- GI50 [18]: > 100 µM (inactive)
- GI50 [19]: > 100 µM (inactive)
- GI50 [20]: > 100 µM (inactive)
- GI50 [21]: > 100 µM (inactive)
- GI50 [22]: > 100 µM (inactive)
- GI50 [23]: > 100 µM (inactive)
- GI50 [24]: > 100 µM (inactive)
- GI50 [25]: > 100 µM (inactive)
- GI50 [26]: > 100 µM (inactive)
- GI50 [27]: > 100 µM (inactive)
- GI50 [28]: > 100 µM (inactive)
- GI50 [29]: 35.9 µM (inactive)
- GI50 [30]: > 100 µM (inactive)
- GI50 [32]: > 100 µM (inactive)
- GI50 [33]: > 100 µM (inactive)
- GI50 [34]: > 100 µM (inactive)
- GI50 [35]: > 100 µM (inactive)
- GI50 [36]: > 100 µM (inactive)
- GI50 [37]: > 100 µM (inactive)
- GI50 [38]: > 100 µM (inactive)
- GI50 [39]: > 100 µM (inactive)
- GI50 [40]: > 100 µM (inactive)
- GI50 [41]: > 100 µM (inactive)
- GI50 [42]: > 100 µM (inactive)
- GI50 [43]: > 100 µM (inactive)
- GI50 [58]: > 100 µM (inactive)
- GI50 [44]: > 100 µM (inactive)
- GI50 [45]: > 100 µM (inactive)
- GI50 [46]: > 100 µM (inactive)
- GI50 [47]: > 100 µM (inactive)
- GI50 [48]: > 100 µM (inactive)
- GI50 [49]: > 100 µM (inactive)
- GI50 [51]: > 100 µM (inactive)
- GI50 [52]: > 100 µM (inactive)
- GI50 [53]: > 100 µM (inactive)
- GI50 [54]: > 100 µM (inactive)
- GI50 [55]: > 100 µM (inactive)
- GI50 [56]: 51.6 µM (inactive)

Structure (SMILES): N#Cc1ccc(Oc2cccc(Oc3ccccc3)c2)cc1C#N
- GI50 [1]: > 10 µM (inactive)
- GI50 [2]: 41.5 µM (inactive)
- GI50 [3]: 42 µM (inactive)
- GI50 [4]: 54.3 µM (inactive)
- GI50 [5]: > 10 µM (inactive)
- GI50 [6]: 23.3 µM (inactive)
- GI50 [7]: > 10 µM (inactive)
- GI50 [8]: > 10 µM (inactive)
- GI50 [9]: 31.9 µM (inactive)
- GI50 [57]: 37.5 µM (inactive)
- GI50 [11]: > 10 µM (inactive)
- GI50 [12]: 44.3 µM (inactive)
- GI50 [13]: > 10 µM
- GI50 [14]: 31.9 µM (inactive)
- GI50 [15]: > 10 µM (inactive)
- GI50 [16]: > 10 µM (inactive)
- GI50 [17]: > 10 µM (inactive)
- GI50 [18]: > 10 µM (inactive)
- GI50 [19]: > 10 µM (inactive)
- GI50 [20]: 41.4 µM (inactive)
- GI50 [21]: > 10 µM (inactive)
- GI50 [22]: > 10 µM (inactive)
- GI50 [23]: > 10 µM (inactive)
- GI50 [24]: 61 µM (inactive)
- GI50 [25]: > 10 µM (inactive)
- GI50 [26]: > 10 µM (inactive)
- GI50 [27]: 30.8 µM (inactive)
- GI50 [28]: > 10 µM (inactive)
- GI50 [29]: > 10 µM (inactive)
- GI50 [30]: 44.8 µM (inactive)
- GI50 [31]: 74.5 µM (inactive)
- GI50 [32]: 14.2 µM (inactive)
- GI50 [33]: 75.2 µM (inactive)
- GI50 [34]: 36.7 µM (inactive)
- GI50 [35]: > 10 µM (inactive)
- GI50 [36]: > 10 µM (inactive)
- GI50 [37]: > 10 µM (inactive)
- GI50 [38]: 64 µM (inactive)
- GI50 [39]: 79.6 µM (inactive)
- GI50 [40]: 48.2 µM (inactive)
- GI50 [41]: 76.2 µM (inactive)
- GI50 [42]: 99.5 µM (inactive)
- GI50 [43]: 61.7 µM (inactive)
- GI50 [58]: 64 µM (inactive)
- GI50 [44]: 36.7 µM (inactive)
- GI50 [45]: > 10 µM (inactive)
- GI50 [46]: > 10 µM (inactive)
- GI50 [47]: 28.5 µM (inactive)
- GI50 [48]: 1.35 µM (inactive)
- GI50 [49]: > 10 µM (inactive)
- GI50 [50]: > 10 µM (inactive)
- GI50 [51]: > 100 µM (inactive)
- GI50 [52]: > 10 µM (inactive)
- GI50 [53]: 71.1 µM (inactive)
- GI50 [54]: > 10 µM (inactive)
- GI50 [55]: > 10 µM (inactive)
- GI50 [56]: 14.9 µM (inactive)
- GI50 [59]: > 10 µM (inactive)
